In brackets after ≈: the same amount, converted by molar mass. Read-outs that look alike come from different tables or passages of the source.
Experiments:
[1] = system: Malassezia furfur (Pityrosporum ovale) MTCC 1374; experiment: MIC by macrobroth double dilution (NCCLS); type: cell-based
Procedure: (§1) MIC value—is the lowest concentration of the antimicrobial agent required to inhibit growth of the microorganism was determined by the macrobroth double dilution method as per the NCCLS guidelines. (Reference Method for broth dilution antifungal susceptibility testing of Yeasts, Approved Standard; M27A, Vol. 17, No. 9, 1997 & Methods for dilution antimicrobial susceptibility tests for bacteria that grow aerobically; Approved Standard—5th Ed., M7-A5, Vol. 20, No. 2, 2000. National Committee for Clinical Laboratory Standards, Wayne, Pa.).
(§2) The test substances viz., TCS, CMB, ZPTO, KTZ, LGO, Citral, Nerol & Geraniol were prepared as stock solutions. Weighed 10 mg of TCS, CMB, ZPTO, & KTZ individually and dissolved in 1 ml of solvent (IN NaOH for TCS and DMSO for CMB, ZPTO & KTZ) and diluted in 19 ml SDB. The concentration of the prepared substances was 500 μg/ml. Similarly, weighed 400 mg of LGO, Citral, Nerol & Geraniol individually and dissolved in 2 ml DMSO and diluted in 18 ml SDB. The concentration of LGO, Citral, Nerol & Geraniol was 20000 μg/ml. All test solutions were prepared afresh prior to determination of MIC.
(§3) S. aureus, S. epidermidis and B. subtilis were cultured in Mueller Hinton Agar (MHA) for 24 hrs. at 37° C. 1-2 colonies were suspended in MHB overnight at 37° C. C. albicans and A. niger were cultured in Sabauraud Dextrose Agar (SDA) at 28° C. for 24 hrs and 4 days respectively. 1-2 colonies of C. albicans was suspended in SDB and cultured overnight at 28° C. Aspergillus spores were washed with physiological saline prior to testing. M. furfur was cultured in SDA with 1% Tween 80 for 72 hrs at 32° C. Colonies were suspended in SDB with 1% Tween 80 and incubated at 32° C. M. restricta was cultured in Dixon agar at 32° C. for 3-4 days. Colonies were suspended in saline prior to testing.
(§4) Colonies suspended in broth/saline were determined for counts photometrically. (Hammer K A, et al.: Antimicrob. Agents Chemo., (2000), 44(2): 467-469). The organisms were diluted such that the final concentration was 1×10^6 cfu/ml for S. aureus, S. epidermidis and B. subtilis, 1×10^5 cfu/ml for C. albicans and A. niger and 2×10^3 cfu/ml for M. furfur and M. restricta.
(§5) Double fold serial dilutions were done with the test substance, such that the final concentration of TCS was between 250 μg/ml and 0.03 μg/ml; and that of functionalized hydrocarbon (Citral, Nerol, Geraniol) and/or mixtures containing such functionalized hydrocarbons (LGO) was between 10000 μg/ml-19.53 μg/ml. Inoculated organisms were added to the tubes and required controls were also set up in the assay to rule out contamination/inactivation of the test substance.
(§6) Tubes were incubated for 24 hrs at 37° C. for S. aureus, S. epidermidis and B. subtilis; at 28° C. for C. albicans; for 48 hrs at 28° C. for A. niger, 32° C. for M, furfur and M. restricta. At the end of the incubation period, 10 μl aliquots from each tube were spot inoculated onto Nutrient agar (for bacteria), SDA (for C. albicans & A. niger), SDA with 1% Tween 80 for M. furfur and Dixon Agar for M. restricta. The plates were incubated for 24 hrs at 37° C. (S. aureus, S. epidermidis & B. subtilis), at 28° C. (C. albicans); 3-4 days at 28° C. (A. niger), 48-72 hrs at 32° C. (M. furfur & M. restricta) when the colonies became visible.
(§7) At the end of the incubation period, plates were checked for growth of colonies.
(§8) 140 mg of the sample was dissolved in 2 ml of Dimethyl Sulfoxide (DMSO) and further diluted in 18 ml of SDB. The final concentration of antimicrobial and functionalized hydrocarbon and/or mixtures containing such functionalized hydrocarbons in the mixture was 333.33 μg/ml and 6666.66 μg/ml respectively.
(§9) 205 mg of the sample was dissolved in 2 ml of Dimethyl Sulfoxide (DMSO) and further diluted in 18 ml of SDB. The final concentration of antimicrobial and functionalized hydrocarbon and/or mixtures containing such functionalized hydrocarbons in the mixture was 250 μg/ml and 10000 μg/ml respectively.

[2] = system: Staphylococcus epidermidis MTCC 435; experiment: MIC by macrobroth double dilution (NCCLS); type: cell-based
Procedure: as §1, §2, §3, §4, §5, §6, §7, §8, §9

[3] = system: Aspergillus niger MTCC 1344; experiment: MIC by macrobroth double dilution (NCCLS); type: cell-based
Procedure: as §1, §2, §3, §4, §5, §6, §7, §8, §9

[4] = system: Staphylococcus aureus MTCC 96; experiment: MIC by macrobroth double dilution (NCCLS); type: cell-based
Procedure: as §1, §2, §3, §4, §5, §6, §7, §8, §9

[5] = system: Bacillus subtilis MTCC 441; experiment: MIC by macrobroth double dilution (NCCLS); type: cell-based
Procedure: as §1, §2, §3, §4, §5, §6, §7, §8, §9

[6] = system: Candida albicans MTCC 3017; experiment: MIC by macrobroth double dilution (NCCLS); type: cell-based
Procedure: as §1, §2, §3, §4, §5, §6, §7, §8, §9

[7] = system: Malassezia restricta CBS 7877; experiment: MIC by macrobroth double dilution (NCCLS); type: cell-based
Procedure: as §1, §2, §3, §4, §5, §6, §7, §8, §9

[8] = Bhargava & Leonard 1996; cited from earlier work
[9] = Malassezia furfur, MTCC1374, individual ingredient, M. furfur, read-out: MIC
[10] = MTCC435, individual ingredient, S. epidermidis, read-out: MIC
[11] = MTCC1344, individual ingredient, A. niger, read-out: MIC
[12] = MTCC96, individual ingredient, S. aureus, read-out: MIC
[13] = MTCC441, individual ingredient, B. subtilis, read-out: MIC
[14] = MTCC3017, individual ingredient, C. albicans, read-out: MIC
[15] = CBS7877, individual ingredient, M. restricta, read-out: MIC

Row | Molecule | MIC [1, 9] [µg/mL] | MIC [2, 10] [µg/mL] | MIC [3, 11] [µg/mL] | MIC [4, 12] [µg/mL] | MIC [5, 13] [µg/mL] | MIC [6, 14] [µg/mL] | MIC [7, 15] [µg/mL] | also measured
1 | CC(C)(C)C(=O)C(Oc1ccc(Cl)cc1)n1ccnc1 (stereo not drawn) [CMB, Climbazole] | 1.95 (≈ 6.66 µM) |  |  |  |  |  |  | 
2 | CC(C)=CCCC(C)=CC=O [Citral] | 39.1 (≈ 257 µM) | 312 (≈ 2050 µM) | 625 (≈ 4110 µM) | 312 (≈ 2050 µM) | 5000 (≈ 32800 µM) | 156 (≈ 1030 µM) | 156 (≈ 1030 µM) | 
3 | CC(C)=CCC/C(C)=C/CO [Geraniol] | 156 (≈ 1010 µM) | 1250 (≈ 8100 µM) | 5000 (≈ 32400 µM) | 5000 (≈ 32400 µM) | 2500 (≈ 16200 µM) | 1250 (≈ 8100 µM) | 312 (≈ 2030 µM) | 
4 | CC(=O)N1CCN(c2ccc(OCC3COC(Cn4ccnc4)(c4ccc(Cl)cc4Cl)O3)cc2)CC1 (stereo not drawn) [KTZ, Ketoconazole] | 0.48 (≈ 0.903 µM) |  |  |  |  |  |  | 
5 | CC(C)=CCC/C(C)=C\CO [Nerol] | 156 (≈ 1010 µM) | 1250 (≈ 8100 µM) | 1250 (≈ 8100 µM) | 5000 (≈ 32400 µM) | 10000 (≈ 64800 µM) | 1250 (≈ 8100 µM) | 312 (≈ 2030 µM) | 
6 | Oc1cc(Cl)ccc1Oc1ccc(Cl)cc1Cl [TCS, 2,4,4′-trichloro-2′-hydroxydiphenyl ether, reference compound] |  |  |  |  |  |  |  | carcinogenic, mutagenic or teratogenic effects [8]: not found to have any carcinogenic, mutagenic or teratogenic effects; toxicity to humans and other mammals [8]: relatively non-toxic; MIC ([2]; MTCC435): 7.81 µg/mL (≈ 27 µM); MIC ([3]; MTCC1344): 31.2 µg/mL (≈ 108 µM); MIC ([4]; MTCC96): 1.95 µg/mL (≈ 6.73 µM); MIC ([1]; Malassezia furfur, MTCC1374): 62.5 µg/mL (≈ 216 µM); MIC ([5]; MTCC441): 15.6 µg/mL (≈ 53.9 µM); MIC ([6]; MTCC3017): 15.6 µg/mL (≈ 53.9 µM); MIC ([7]; CBS7877): 62.5 µg/mL (≈ 216 µM)
7 | Zinc Pyrithione [ZPTO] |  |  |  |  |  |  |  | MIC ([1]; individual ingredient, M. furfur): 3.9 µg/mL
